Experimental findings from patent US7812050B2, “Polymorphic form of fluoro-7-(2,2,2-trifluoroethoxy) phenoxathiin-10,10-dioxide” (CeNeRx BioPharma, Inc., priority 2006, dated 2010) are described below.

Data set [1] in a line: Dissolution temperature in 10% (v/v) water in acetic acid. Format: physicochemical. The note with it: ratio (w/v) of compound to solvent about 1.6 g: 10 mL.
Data set [2] can be described thus: Particle size by light diffraction (Sympatec HELOS, dry powder dispersion). Format: physicochemical. On the procedure:
Dispersion was performed on a sample of Form A of 3-fluoro-7-(2,2,2-trifluoroethoxy)phenoxathiin-10,10-dioxide produced accordance with the method presented in Example 4. Dispersion pressure of 0.5 to 2.0 bar was used to disperse the sample particles. Samples were analyzed by microscopy prior to particle size analysis to assess aggregation and estimate particle size, and without fracturing primary particles or causing aggregation. […] Particle size was measured using a Sympatec HELOS equipped with VIERI dry powder feeder unit, and sample measurements for optimization of jet pressure and repeatability were performed according to USP<429>, Method Validation Protocol ANC00756, and TM-1509 Rev.00 (draft).

For the compound `O=S1(=O)c2ccc(F)cc2Oc2cc(OCC(F)(F)F)ccc21` [Form A, 3-fluoro-7-(2,2,2-trifluoroethoxy)phenoxathiin-10,10-dioxide], the “temperature at which the form dissolves” value in data set [1] was 75-85 °C. Moreover, the x10 in data set [2] (Dispersion Pressure 0.5 bar) came out at 3.05 μm; in data set [2] (Dispersion Pressure 1 bar) it was 2.54 μm; in data set [2] (Dispersion Pressure 1.5 bar), 2.21 μm; in data set [2] (Dispersion Pressure 2 bar), 1.94 μm. The x50 in data set [2] (Dispersion Pressure 0.5 bar) came out at 9.07 μm; in data set [2] (Dispersion Pressure 1 bar), 7.96 μm; in data set [2] (Dispersion Pressure 1.5 bar), 7.35 μm; in data set [2] (Dispersion Pressure 2 bar), 6.88 μm. Also, the x90 in data set [2] (Dispersion Pressure 0.5 bar) came out at 24.49 μm; in data set [2] (Dispersion Pressure 1 bar), 19.32 μm; in data set [2] (Dispersion Pressure 1.5 bar), 17.1 μm; in data set [2] (Dispersion Pressure 2 bar), 15.32 μm.
